Legend:
Format in all cases: in vivo
[1] = test system: ivyleaf morningglory (Ipomoea hederacea, IPOHE); test: Pre-emerge greenhouse herbicide test, phytotoxicity rating; conditions: 14 days after application, rating scale 0-100
Outline: (§1)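 Visual 0–100 injury rating (100 = all plants dead) taken 14 days after treatment. Rates of 125–1000 g ai/ha in acetone, 187 l/ha, were sprayed onto soil one day post-sowing; pots were surface-watered to incorporate, then bottom-watered.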

[2] = test system: lambsquarters (Chenopodium album, CHEAL); test: as above; conditions: 14 days after application, rating scale 0-100
Outline: as §1

[3] = test system: large crabgrass (Digitaria sanguinalis, DIGSA); test: as above; conditions: 14 days after application, rating scale 0-100
Outline: as §1

[4] = test system: barnyardgrass (Echinochloa crusgalli, ECHCG); test: as above; conditions: 14 days after application, rating scale 0-100
Outline: as §1

[5] = test system: Johnsongrass (Sorghum halepense, SORHA); test: as above; conditions: 14 days after application, rating scale 0-100
Outline: as §1

[6] = test system: velvetleaf (Abutilon theophrasti, ABUTH); test: as above; conditions: 14 days after application, rating scale 0-100
Outline: as §1

[7] = test system: common ragweed (Ambrosia artemisiifolia L., AMBEL); test: as above; conditions: 14 days after application, rating scale 0-100
Outline: as §1

[8] = test system: redroot pigweed (Amaranthus retroflexus, AMARE); test: as above; conditions: 14 days after application, rating scale 0-100
Outline: as §1

[9] = test system: sicklepod (Cassia obtusifolia, CASOB); test: as above; conditions: 14 days after application, rating scale 0-100
Outline: as §1

[10] = test system: green foxtail (Setaria viridis, SETVI); test: as above; conditions: 14 days after application, rating scale 0-100
Outline: as §1

[11] = test system: ivyleaf morningglory (Ipomoea hederacea, IPOHE); test: Post-emerge greenhouse herbicide test, phytotoxicity rating; conditions: 14 days after application, scale 0-100
Outline: (§2)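 Scores use a 0 (no damage) to 100 (complete kill) scale, taken 14 days after a foliar spray. Acetone solutions with 0.25% v/v non-ionic surfactant were applied by track sprayer at 187 l/ha and 63-1000 g ai/ha to bottom-watered 2-3 leaf plants.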

[12] = test system: lambsquarters (Chenopodium album, CHEAL); test: as above; conditions: 14 days after application, scale 0-100
Outline: as §2

[13] = test system: large crabgrass (Digitaria sanguinalis, DIGSA); test: as above; conditions: 14 days after application, scale 0-100
Outline: as §2

[14] = test system: barnyardgrass (Echinochloa crusgalli, ECHCG); test: as above; conditions: 14 days after application, scale 0-100
Outline: as §2

[15] = test system: Johnsongrass (Sorghum halepense, SORHA); test: as above; conditions: 14 days after application, scale 0-100
Outline: as §2

[16] = test system: velvetleaf (Abutilon theophrasti, ABUTH); test: as above; conditions: 14 days after application, scale 0-100
Outline: as §2

[17] = test system: redroot pigweed (Amaranthus retroflexus, AMARE); test: as above; conditions: 14 days after application, scale 0-100
Outline: as §2

[18] = test system: sicklepod (Cassia obtusifolia, CASOB); test: as above; conditions: 14 days after application, scale 0-100
Outline: as §2

[19] = test system: green foxtail (Setaria viridis, SETVI); test: as above; conditions: 14 days after application, scale 0-100
Outline: as §2

[20] = test system: common ragweed (Ambrosia artemisiifolia L., AMBEL); test: as above; conditions: 14 days after application, scale 0-100
Outline: as §2

[21] = test system: soybean (Glycine max L., var. Pella 86, SOY); test: Pre-emerge greenhouse test, crop damage rating; parameters: key to SOY crop damage rating: 0 = no damage, 100 = complete death of all plants; conditions: 14 days after application, rating scale 0-100
Outline: as §1

[22] = test system: field corn (Zea mays L., var. Dekalb 535, CORN); test: Pre-emerge greenhouse test, crop damage rating; conditions: 14 days after application, rating scale 0-100
Outline: as §1

[23] = test system: upland rice (Oryza sp., var.Tebonnet, RICE); test: Pre-emerge greenhouse test, crop damage rating; conditions: 14 days after application, rating scale 0-100
Outline: as §1

[24] = test system: soybean (Glycine max L., var. Pella 86, SOY); test: Post-emerge greenhouse test, crop damage rating; parameters: key to crop damage rating SOY: 0-100 scale: 0 = no damage, 100 = complete death of all plants; conditions: 14 days after application, scale 0-100
Outline: as §2

[25] = test system: field corn (Zea mays L., var. Dekalb 535, CORN); test: Post-emerge greenhouse test, crop damage rating; conditions: 14 days after application, scale 0-100
Outline: as §2

[26] = test system: upland rice (Oryza sp., var.Tebonnet, RICE); test: Post-emerge greenhouse test, crop damage rating; conditions: 14 days after application, scale 0-100
Outline: as §2

O=c1n(-c2cc(Oc3ncccc3[N+](=O)[O-])c(Cl)cc2F)c(=S)n2n1CCCC2 [Compound 8-19]
IPOHE phytotoxicity rating ([1]; Rate 125 g al/ha): 40
IPOHE phytotoxicity rating ([1]; Rate 500 g al/ha): 90
CHEAL phytotoxicity rating ([2]; Rate 125 g al/ha): 100
CHEAL phytotoxicity rating ([2]; Rate 500 g al/ha): 100
DIGSA phytotoxicity rating ([3]; Rate 125 g al/ha): 30
DIGSA phytotoxicity rating ([3]; Rate 500 g al/ha): 100
ECHCG phytotoxicity rating ([4]; Rate 125 g al/ha): 50
ECHCG phytotoxicity rating ([4]; Rate 500 g al/ha): 95
SORHA phytotoxicity rating ([5]; Rate 125 g al/ha): 80
SORHA phytotoxicity rating ([5]; Rate 500 g al/ha): 95
ABUTH phytotoxicity rating ([6]; Rate 125 g al/ha): 100
ABUTH phytotoxicity rating ([6]; Rate 500 g al/ha): 100
AMBEL phytotoxicity rating ([7]; Rate 125 g al/ha): 50
AMBEL phytotoxicity rating ([7]; Rate 500 g al/ha): 100
AMARE phytotoxicity rating ([8]; Rate 125 g al/ha): 100
AMARE phytotoxicity rating ([8]; Rate 500 g al/ha): 100
CASOB phytotoxicity rating ([9]; Rate 125 g al/ha): 20
CASOB phytotoxicity rating ([9]; Rate 500 g al/ha): 100
SETVI phytotoxicity rating ([10]; Rate 125 g al/ha): 100
SETVI phytotoxicity rating ([10]; Rate 500 g al/ha): 100
phytotoxicity rating IPOHE ([11]; rate 63 g ai/ha): 100
phytotoxicity rating IPOHE ([11]; rate 500 g ai/ha): 100
phytotoxicity rating CHEAL ([12]; rate 63 g ai/ha): 100
phytotoxicity rating CHEAL ([12]; rate 500 g ai/ha): 100
phytotoxicity rating DIGSA ([13]; rate 63 g ai/ha): 30
phytotoxicity rating DIGSA ([13]; rate 500 g ai/ha): 30
phytotoxicity rating ECHCG ([14]; rate 63 g ai/ha): 50
phytotoxicity rating ECHCG ([14]; rate 500 g ai/ha): 50
phytotoxicity rating SORHA ([15]; rate 63 g ai/ha): 50
phytotoxicity rating SORHA ([15]; rate 500 g ai/ha): 50
phytotoxicity rating ABUTH ([16]; rate 63 g ai/ha): 100
phytotoxicity rating ABUTH ([16]; rate 500 g ai/ha): 100
phytotoxicity rating AMARE ([17]; rate 63 g ai/ha): 100
phytotoxicity rating AMARE ([17]; rate 500 g ai/ha): 100
phytotoxicity rating CASOB ([18]; rate 63 g ai/ha): 70
phytotoxicity rating CASOB ([18]; rate 500 g ai/ha): 90
phytotoxicity rating SETVI ([19]; rate 63 g ai/ha): 60
phytotoxicity rating SETVI ([19]; rate 500 g ai/ha): 90
phytotoxicity rating AMBEL ([20]; rate 63 g ai/ha): 90
phytotoxicity rating AMBEL ([20]; rate 500 g ai/ha): 90
SOY crop damage rating ([21]; Rate 125 g al/ha): 20
SOY crop damage rating ([21]; Rate 500 g al/ha): 0
CORN crop damage rating ([22]; Rate 125 g al/ha): 15
CORN crop damage rating ([22]; Rate 500 g al/ha): 30
RICE crop damage rating ([23]; Rate 125 g al/ha): 50
RICE crop damage rating ([23]; Rate 500 g al/ha): 80
crop damage rating SOY ([24]; rate 63 g ai/ha): 65
crop damage rating SOY ([24]; rate 500 g ai/ha): 50
crop damage rating CORN ([25]; rate 63 g ai/ha): 30
crop damage rating CORN ([25]; rate 500 g ai/ha): 30
crop damage rating RICE ([26]; rate 63 g ai/ha): 40
crop damage rating RICE ([26]; rate 500 g ai/ha): 60

Source: patent US6479435B1, “Diaryl ethers and processes for their preparation and herbicidal and desiccant compositions containing them” (ISK Americas Incorporated, priority 1997, dated 2002)
